Drawing on patent publication US8450313B2, “2,3-diaryl- or heteroaryl-substituted 1,1,1-trifluoro-2-hydroxypropyl compounds” (Hoffmann-La Roche Inc., priority 2009, dated 2013), this text covers Ki for 21 compounds.

For the assay, the target named is T1, full length human recombinant glucocorticoid receptor (Homo sapiens, UniProt P04150).
T1 construct: It contains some partially purified full length human recombinant glucocorticoid receptor; purchased Panvera/Invitrogen PV4302
T1 sequence (P04150 1-777): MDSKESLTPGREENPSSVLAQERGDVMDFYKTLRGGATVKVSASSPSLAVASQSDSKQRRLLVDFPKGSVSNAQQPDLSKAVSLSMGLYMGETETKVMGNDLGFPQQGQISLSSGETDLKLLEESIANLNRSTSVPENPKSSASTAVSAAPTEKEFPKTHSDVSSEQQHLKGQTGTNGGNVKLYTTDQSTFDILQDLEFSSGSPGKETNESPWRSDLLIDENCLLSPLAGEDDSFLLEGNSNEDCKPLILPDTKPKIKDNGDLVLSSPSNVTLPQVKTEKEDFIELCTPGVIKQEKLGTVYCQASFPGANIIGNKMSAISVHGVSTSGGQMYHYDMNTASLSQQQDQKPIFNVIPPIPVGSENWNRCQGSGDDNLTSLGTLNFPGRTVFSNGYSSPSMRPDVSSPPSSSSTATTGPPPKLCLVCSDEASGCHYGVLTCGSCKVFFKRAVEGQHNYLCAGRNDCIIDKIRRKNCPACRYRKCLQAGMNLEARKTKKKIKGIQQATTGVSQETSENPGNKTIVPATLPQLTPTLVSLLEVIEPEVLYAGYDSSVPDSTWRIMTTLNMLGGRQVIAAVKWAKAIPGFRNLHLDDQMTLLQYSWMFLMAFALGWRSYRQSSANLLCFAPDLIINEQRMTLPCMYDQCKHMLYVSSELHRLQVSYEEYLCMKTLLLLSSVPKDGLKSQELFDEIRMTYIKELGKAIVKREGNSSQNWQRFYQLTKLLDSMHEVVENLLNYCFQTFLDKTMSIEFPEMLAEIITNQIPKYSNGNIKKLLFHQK
Put plainly: Glucocorticoid Receptor Binding Assay (Glucocorticoid Receptor Competitor Assay far red kit, fluorescence polarization). As to conditions: competition with fluorescent GR ligand Fluormone GS Far Red, 3 hours at 22° C., pH 7.4; Ki calculated from IC50 by Cheng-Prusoff. In outline:
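Fluorescence polarization competition with partially purified full-length human recombinant GR, stabilizing peptide and Fluormone GS Far Red tracer in screening buffer pH 7.4; 3 hours at 22° C in the dark, read at 610–660 nm. IC50 from sigmoidal fit; Ki by Cheng-Prusoff.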
On to `C[C@H](c1ccc(Oc2ncc(C(=O)O)cc2Cl)cc1Cl)[C@@](O)(c1ccc2c(c1)OCC(=O)N2C)C(F)(F)F` (stereo in doubt) [Example 165, 5-Chloro-6-{3-chloro-4-[3,3,3-trifluoro-2-hydroxy-1-methyl-2-(4-methyl-3-oxo-3,4-dihydro-2H-benzo[1,4]oxazin-7-yl)-propyl]-phenoxy}-nicotinic acid], for which the Ki was 0.9 nM. With `C[C@H](c1ccc(OC(C)(C)C(=O)O)cc1Cl)[C@@](O)(c1ccc2c(c1)N(C)C(=O)CO2)C(F)(F)F` (stereo in doubt) [Example 207, 2-{3-Chloro-4-[3,3,3-trifluoro-2-hydroxy-1-methyl-2-(4-methyl-3-oxo-3,4-dihydro-2H-benzo[1,4]oxazin-6-yl)-propyl]-phenoxy}-2-methyl-propionic acid], the Ki was 370 nM. Next, `COC(=O)c1ccc(Oc2ccc([C@@H](C)[C@@](O)(c3ccc4oc(=O)n(C)c4c3)C(F)(F)F)c(Cl)c2)nc1Cl` (stereo in doubt) [Example 182, 2-Chloro-6-{3-chloro-4-[3,3,3-trifluoro-2-hydroxy-1-methyl-2-(3-methyl-2-oxo-2,3-dihydro-benzooxazol-5-yl)-propyl]-phenoxy}-nicotinic acid methyl ester]: 3.3 nM; `C[C@@H](c1ccc(-c2ccc(C(=O)O)cc2F)cc1Cl)[C@](O)(c1ccc2c(c1)N(C)C(=O)CO2)C(F)(F)F` (stereo in doubt) [Example 34, 3′-Chloro-2-fluoro-4′-[3,3,3-trifluoro-2-hydroxy-1-methyl-2-(4-methyl-3-oxo-3,4-dihydro-2H-benzo[1,4]oxazin-6-yl)-propyl]-biphenyl-4-carboxylic acid]: 7.8 nM; `C[C@H](c1ccc(Oc2ccc(C(=O)O)cc2)cc1Cl)[C@@](O)(c1ccc2c(c1)N(C)C(=O)CO2)C(F)(F)F` (racemic) [Example 60, 4-{3-Chloro-4-[3,3,3-trifluoro-2-hydroxy-1-methyl-2-(4-methyl-3-oxo-3,4-dihydro-2H-benzo[1,4]oxazin-6-yl)-propyl]-phenoxy}-benzoic acid]: 2.3 nM. `C[C@@H](c1cc(Oc2ccc(C(=O)O)cc2)ccc1Cl)[C@](O)(c1ccc2c(c1)N(C)C(=O)CO2)C(F)(F)F` (relative stereo) [Example 8, 4-{4-Chloro-3-[3,3,3-trifluoro-2-hydroxy-1-methyl-2-(4-methyl-3-oxo-3,4-dihydro-2H-benzo[1,4]oxazin-6-yl)-propyl]-phenoxy}-benzoic acid]: the Ki is 10.8 nM. Take `CCOC(=O)COc1ccc(-c2ccc([C@@H](C)[C@@](O)(c3ccc4oc(=O)n(C)c4c3)C(F)(F)F)c(Cl)c2)cc1` (relative stereo) [Example 129, {3′-Chloro-4′-[3,3,3-trifluoro-2-hydroxy-1-methyl-2-(3-methyl-2-oxo-2,3-dihydro-benzooxazol-5-yl)-propyl]-biphenyl-4-yloxy}-acetic acid ethyl ester]: the Ki was 1.1 nM. With `C[C@H](c1ccc(Oc2cc(C(F)(F)F)c(C(=O)O)cn2)cc1Cl)[C@@](O)(c1ccc2c(c1)N(C)C(=O)CO2)C(F)(F)F` [Example 62], the Ki was 2.1 nM. Next, `COC(=O)c1ccc(-c2ccc([C@H](C)[C@](O)(c3cc4c(cc3F)OCC(=O)N4C)C(F)(F)F)c(Cl)c2)cc1F` (relative stereo) [Example 136, 3′-Chloro-3-fluoro-4′-[3,3,3-trifluoro-2-(7-fluoro-4-methyl-3-oxo-3,4-dihydro-2H-benzo[1,4]oxazin-6-yl)-2-hydroxy-1-methyl-propyl]-biphenyl-4-carboxylic acid methyl ester]: 1.3 nM. In the case of `Cc1cc([C@@](O)([C@@H](C)c2ccc(Oc3ccc(C(=O)O)cn3)cc2Cl)C(F)(F)F)cc(C)c1C#N` (stereo in doubt) [Example 148, 6-{3-Chloro-4-[2-(4-cyano-3,5-dimethyl-phenyl)-3,3,3-trifluoro-2-hydroxy-1-methyl-propyl]-phenoxy}-nicotinic acid] it was 1.6 nM. Next, `COC(=O)c1cncc(-c2ccc([C@@H](C)[C@@](O)(c3ccc4oc(=O)n(C)c4c3)C(F)(F)F)c(Cl)c2)c1` (relative stereo) [Example 186, 5-{3-Chloro-4-[3,3,3-trifluoro-2-hydroxy-1-methyl-2-(3-methyl-2-oxo-2,3-dihydro-benzooxazol-5-yl)-propyl]-phenyl}-nicotinic acid methyl ester]: 1.4 nM. For the compound `C[C@H](c1ccc(Oc2ncc(Cl)cc2C(=O)O)cc1Cl)[C@@](O)(c1ccc2c(c1)n(C)c(=O)n2C)C(F)(F)F` (stereo in doubt) [Example 104, 5-Chloro-2-{3-chloro-4-[2-(1,3-dimethyl-2-oxo-2,3-dihydro-1H-benzoimidazol-5-yl)-3,3,3-trifluoro-2-hydroxy-1-methyl-propyl]-phenoxy}-nicotinic acid], the Ki is 1.6 nM. In the case of `C[C@H](c1ccc(Oc2cc(Cl)c(C(=O)O)cn2)cc1Cl)[C@@](O)(c1ccc2c(c1)N(C)C(=O)CO2)C(F)(F)F` (stereo in doubt) [Example 211, 4-Chloro-6-{3-chloro-4-[3,3,3-trifluoro-2-hydroxy-1-methyl-2-(4-methyl-3-oxo-3,4-dihydro-2H-benzo[1,4]oxazin-6-yl)-propyl]-phenoxy}-nicotinic acid] it was 1.2 nM; in that of `C[C@@H](c1ccc(Oc2cc(C(F)(F)F)c(C(=O)O)cn2)cc1Cl)[C@](O)(c1ccc2c(c1)n(C)c(=O)n2C)C(F)(F)F` (relative stereo) [Example 102, 6-{3-Chloro-4-[2-(1,3-dimethyl-2-oxo-2,3-dihydro-1H-benzoimidazol-5-yl)-3,3,3-trifluoro-2-hydroxy-1-methyl-propyl]-phenoxy}-4-trifluoromethyl-nicotinic acid], 0.5 nM; in that of `C[C@H](c1ccc(-c2ccc(C(=O)O)c(F)c2)cc1Cl)[C@@](O)(c1cccc(C#N)c1)C(F)(F)F` (relative stereo) [Example 153, 3′-Chloro-4′-[2-(3-cyano-phenyl)-3,3,3-trifluoro-2-hydroxy-1-methyl-propyl]-3-fluoro-biphenyl-4-carboxylic acid], 23.2 nM. In the case of `C[C@H](c1ccc(-c2ccc(C(=O)O)c(F)c2)cc1Cl)[C@@](O)(c1ccc2[nH]c(=O)[nH]c2c1)C(F)(F)F` (relative stereo) [Example 114, 3′-Chloro-3-fluoro-4′-[3,3,3-trifluoro-2-hydroxy-1-methyl-2-(2-oxo-2,3-dihydro-1H-benzoimidazol-5-yl)-propyl]-biphenyl-4-carboxylic acid] it was 354 nM.

Take `COC(=O)c1cnc(Oc2ccc([C@@H](C)[C@@](O)(c3ccc4oc(=O)n(C)c4c3)C(F)(F)F)c(Cl)c2)cc1Cl` (relative stereo) [Example 183, 4-Chloro-6-{3-chloro-4-[3,3,3-trifluoro-2-hydroxy-1-methyl-2-(3-methyl-2-oxo-2,3-dihydro-benzooxazol-5-yl)-propyl]-phenoxy}-nicotinic acid methyl ester]: the Ki was 3 nM.

On to `CCN1C(=O)COc2ccc([C@](O)([C@H](C)c3ccc(-c4ccc(C(=O)O)c(F)c4)cc3Cl)C(F)(F)F)cc21` (relative stereo) [Example 65, 3′-Chloro-4′-[2-(4-ethyl-3-oxo-3,4-dihydro-2H-benzo[1,4]oxazin-6-yl)-3,3,3-trifluoro-2-hydroxy-1-methyl-propyl]-3-fluoro-biphenyl-4-carboxylic acid], for which the Ki was 128 nM.

For the compound `COC(=O)c1ccc(Oc2ccc([C@@H](C)[C@@](O)(c3ccc4oc(=O)n(C)c4c3)C(F)(F)F)c(Cl)c2)nn1` (relative stereo) [Example 199, 6-{3-Chloro-4-[3,3,3-trifluoro-2-hydroxy-1-methyl-2-(3-methyl-2-oxo-2,3-dihydro-benzooxazol-5-yl)-propyl]-phenoxy}-pyridazine-3-carboxylic acid methyl ester], the Ki was 2.1 nM.

In the case of `C[C@H](c1ccc(Oc2ccc(OCC(=O)O)cc2)cc1Cl)[C@@](O)(c1ccc2c(c1)n(C)c(=O)n2C)C(F)(F)F` (stereo in doubt) [Example 93, (4-{3-Chloro-4-[2-(1,3-dimethyl-2-oxo-2,3-dihydro-1H-benzoimidazol-5-yl)-3,3,3-trifluoro-2-hydroxy-1-methyl-propyl]-phenoxy}-phenoxy)-acetic acid], the Ki is 0.3 nM. Next, `COC(=O)c1ccc(Oc2ccc(Cl)c([C@H](C)[C@](O)(c3ccc4c(c3)N(C)C(=O)CO4)C(F)(F)F)c2)cc1Cl` (relative stereo) [Example 9, 2-Chloro-4-{4-chloro-3-[3,3,3-trifluoro-2-hydroxy-1-methyl-2-(4-methyl-3-oxo-3,4-dihydro-2H-benzo[1,4]oxazin-6-yl)-propyl]-phenoxy}-benzoic acid methyl ester]: 8.9 nM.

What is called Ki is the equilibrium dissociation constant of an inhibitor or competing ligand from its target.
